Reference: US20250179126A1, “A NOVEL PEPTIDE FROM A PHOTOSYNTHETIC BACERIUM DIRECTLY TARGETS MITOCHONDRIA TO TRIGGER APOPTOSIS IN ADVANCED PROSTATE CANCER CELLS” (priority 2022, published 2025)

Tests used:
Assay type in all cases: cell-based, human
[1] = system: normal prostate CRL11611 cells; experiment: Annexin-V apoptosis assay by flow cytometry, normal prostate CRL11611; details: normal CRL11611, 48 hr; Ptxl 1 nM, p28 50 μM, aurA/aurB 0.5-50 μM
Method: FIG. 7A-7D: Determination of apoptotic cell death. Prostate cancer cell lines (7A: LNCaP, 7B: DU145 and 7C: PC3) and normal prostate CRL11611 cells (7D) were exposed to the indicated agents for 48 hr and stained using apoptosis assay kits according to the manufacturer's instructions. The samples were analyzed by flow cytometry. Mean±SE (N=3).
After 48 hr, annexin-V apoptosis assays (Thermo Fisher Scientific) were conducted to detect apoptotic cells. At least 10,000 cells in each case were analyzed by FACS (RRC, UIC).

[2] = system: MCF-7 breast cancer cells; experiment: MTT cell viability assay, MCF-7 breast cancer cells; details: MCF-7, 5-100 μM, 24 hr
Source text: Cell viability was detected by MTT assays, and the control (PBS-treated) cells were considered 100% viable. Mean±SE (N=3). *P<0.05, **P<0.01, ***P<0.001.
Cell lines and culture: Human cancer and noncancer (immortalized and nonimmortalized) cell lines were obtained from the American Type Culture Collection [prostate cancer (PC3, DU145 and LNCaP), normal prostate (CRL11611), breast cancer (MCF-7), ovarian cancer (SK-OV3 adenocarcinoma), lung cancer (A549)]. MDD2 breast cancer cells (p53 dominant-negative) were provided courtesy of Dr Andrei V. Gudkov, Roswell Park Cancer Institute. 20 All cell lines were cultured in MEM-E (Invitrogen) supplemented with 10% heat-inactivated fetal bovine serum (Atlanta Biological, Inc.), 100 units/mL penicillin, and 100 μg/mL streptomycin at 37° C. in 5% CO2.
Cytotoxicity assay: The MTT assay was performed as we previously described (Cha et al., Cancer Research 2020, 80: 1615-1623).

Mel-2 cells = experiment: Aldolase A secretion and expression in Mel-2 cells treated with purified azurin; details: Mel-2, purified azurin 100 nM, 10 μM, 1 mM, 30 min
Method: FIG. 18A-18G: Induction of aldolase A secretion by host cells in the presence of P. aeruginosa. 18A. Human host cells (cancer and normal) and P. aeruginosa were co-incubated for 30 min at a concentration of 500,000 human cells/ml with P. aeruginosa at OD=0.3. Aldolase secretion varied between the co-cultures with cancer and normal cells. […] 18B Correlation between the aldolase A and azurin levels in co-cultures of P. aeruginosa with cancer or normal cells. 18C Cancer cells (Mel-2 and MDA-MB-231) and P. aeruginosa (WT and azunull mutant) were co-incubated for 30 min at a concentration of 500,000 human cells/ml with P. aeruginosa at OD=0.3. Secretion of aldolase into the culture supernatant was assessed by western blot analysis. […]
Aldolase A gene expression in MDA-MB-231 (black bars) and Mel-2 (white bars) cells was determined by RT-PCR (22A). […] 22B: Intracellular levels of aldolase A were assessed by western blot analysis with an anti-aldolase A antibody. […]
Western blotting: After running the NuPAGE, proteins were transferred to PVDF membranes (BioRad Laboratories Inc, Hercules, CA) which were blocked in SuperBlock (T20 TBS buffer, Thermo Fisher) for one hour. […] The signal was detected using enhanced chemiluminescence (ECL, Thermo Fisher Scientific). Quantitative analysis of the bands was performed with a computer-assisted imaging densitometer (UN-SCAN-IT gel version 5.1). […]

Substance | apoptotic cell death [1] | anti-proliferative effect (MTT cell viability) [2] | aldolase A gene expression and intracellular levels (Mel-2 cells) | aldolase A secretion into culture medium (western blot) (Mel-2 cells)
LVN GGD DVA AAV NTA AQN NAD ALF VPPP (LVNGGDDVAAAVNTAAQNNADALFVPPP) [aurB] | less extent | clear dose-dependent effects |  | 
azurin: 14 kDa periplasmic copper protein of 128 amino acids from P. aeruginosa; purified recombinant |  |  | without increasing gene expression or intracellular levels of aldolase A | secreted a considerable amount of human aldolase A
